From US20250025490A1, “INDUCTION OF TRAINED IMMUNITY FOR THE TREATMENT OF HYPERPROLIFERATIVE DISORDERS” (priority 2021, published 2025)

Experiments:
[1] = tested on: LLC cells; assay: LDH release cytotoxicity assay against LLC cells; details: Mdivi-1 10 μM, 10:1
Procedure: Cytotoxicity assay. Lung IMs from the PBS vs WGP-trained mice were sorted and co-cultured with LLC cells at different ratios in a 96-well plate. The plates were then incubated at 37° C. with 5% CO2 for 12-16 h. Upon completion of incubation, the supernatants were harvested and assayed for the release of lactate dehydrogenase as per the instructions described in the CyQUANT™ LDH Cytotoxicity Assay Kit (Invitrogen). For the cytotoxicity assay in the presence of Mdivi-1 (10 μM) (Sigma Aldrich), peritoneal macrophages were in vitro trained with PBS or WGP in the presence of Mdivi-1 or DMSO for 6 days. The macrophages were then harvested, counted, and co-cultured with LLC cells at a ratio of 10:1 followed by the lactate dehydrogenase assay for cytotoxicity. In another set of experiments, IMs from the lungs of PBS vs WGP-trained mice were harvested, sorted, and co-cultured with LLC cells (10:1) in the presence of N-acetyl-L-Cysteine (NAC, 1 mM) (Sigma Aldrich) or DMSO and assayed for cytotoxicity.

[2] = tested on: LLC-GFP cells; assay: In vivo Mdivi-1 treatment during WGP training, phenotyping and LLC-GFP challenge; set-up: species or system C57Bl/6 mice
Procedure: In vivo Mdivi-1 treatment. 6 weeks old C57B1/6 female mice were i.p. injected with Mdivi-1 (50 mg/kg) or DMSO along with suitable carriers (5% Tween-80 and 40% PEG300) starting day 0 for 6 days. Mdivi-1/DMSO treated mice were also treated with PBS or WGP at day 0. Mice were euthanized at day 7 to harvest the BM and lungs for phenotyping using flow cytometry. In tumor challenging experiment, Mdivi-1/DMSO-treated PBS vs WGP trained mice were i.v. injected with 0.4×10^6 LLC-GFP cells on day 9. Mice were euthanized on day 27. Lungs were then analyzed for tumor burden using flow cytometry.
CyTOF mass cytometry staining, data acquisition, and analysis. Lung single cell suspensions were prepared as described earlier and ex vivo stimulated with PMA/Ionomycin for 4 h at 37° C., 5% CO2. The cells were then harvested, washed with PBS and transferred to sterile-capped culture tubes. Cells were then stained for viability using 5 μM cisplatin (Fluidigm) in serum-free RPMI 1640 for 5 min at RT and washed with complete RPMI 1640. Cells were stained with the surface markers antibodies for 30 min at RT and washed twice with Maxpar cell staining buffer (Fluidigm) followed by fixation with 1 ml of 1X Maxpar Fix I buffer for 30 min at RT. Upon fixation, cells were washed twice with 2 ml of 1X Maxpar Perm-S buffer for 5 min at 800 g, stained for the cytoplasmic/secreted antibodies and incubated for 30 min at RT. Following incubation, cells were washed twice with 1 ml of 1X Maxpar Perm-S buffer for 5 min at 800 g. The cells were then suspended in 1 ml of 1X Maxpar nuclear antigen staining buffer (Fluidigm) and incubated for 30 min at RT, washed twice with Maxpar nuclear antigen staining permeability buffer (Fluidigm) at 800 g for 5 min each. Cells were stained for nuclear antigens and incubated at RT for 30 min, washed twice with Maxpar nuclear antigen staining permeability buffer and fixed with 1.6% formaldehyde for 10 min at RT. The fixed cells were then centrifuged to remove the formaldehyde at 800 g for 5 min and incubated with 125 nM of intercalator iridium (Fluidigm) overnight at 4° C. After overnight incubation, the cells were washed twice with cell staining buffer, pelleted and kept on ice until acquisition using CyTOF. Prior to acquisition, cells were suspended in a 1:9 solution of Cell acquisition solution: EQ 4 element calibration beads (Fluidigm) and acquired using a Helios CyTOF system. Upon acquisition of the samples, the .FCS files were normalized to .fcs files using the CyTOF software for analysis. The data acquired by CyTOF were then analyzed using FlowJo10 and the FlowSOM softwares.

COc1cc(-n2c(=S)[nH]c3ccccc3c2=O)c(Cl)cc1Cl [Mdivi-1]
effect on cytotoxicity of WGP-trained peritoneal macrophages [1]: abrogated WGP-mediated mtROS production (FIG. 14D) and cytotoxicity against tumor cells
effect on WGP-mediated accumulation of myeloid cells in the lungs ([2]; Mdivi-1 50 mg/kg i.p. daily): did not affect WGP-mediated accumulation of myeloid cells in the lungs
effect on WGP-mediated myelopoiesis in the BM ([2]; Mdivi-1 50 mg/kg i.p. daily, day 7): does not inhibit WGP-mediated myelopoiesis in the BM
lung IM trained phenotype (TNF-α) in WGP trained mice ([2]; Mdivi-1 treated): completely inhibited
tumor burdens in the lungs ([2]; WGP trained + Mdivi-1 vs untrained control): no difference in the tumor burdens between WGP trained mice treated with Mdivi-1 and untrained control mice
F4/80+CD11b+ lung MAMs and PD-L1+/CD206+ lung macrophages, CyTOF ([2]; mouse, in vivo): this effect was abolished when mice were treated with Mdivi-1
